Key:
Test in all cases: biochemical
Parameters in all cases: KINOMEscan active-site competition binding, percent of control (100 = no competition)
Settings in all cases: competition binding, percent control
PKAC-alpha = molecular target: T1, PKAC-alpha (Homo sapiens, UniProt P17612)
T1 construct: gene PRKACA

NEK4 = NEK4 (Homo sapiens, UniProt P51957)
IRAK4 = IRAK4 (Homo sapiens, UniProt Q9NWZ3)
DRAK2 = molecular target: T2, DRAK2 (Homo sapiens, UniProt O94768)
T2 construct: gene STK17B

MAP4K3 = MAP4K3 (Homo sapiens, UniProt Q8IVH8)
[1] = molecular target: T3, RPS6KA4(Kin.Dom.1-N-terminal) (Homo sapiens, UniProt O75676)
T3 construct: Kin.Dom.1-N-terminal

SRPK3 = SRPK3 (Homo sapiens, UniProt Q9UPE1)
STK39 = STK39 (Homo sapiens, UniProt Q9UEW8)
PRKG2 = PRKG2 (Homo sapiens, UniProt Q13237)
PIM3 = PIM3 (Homo sapiens, UniProt Q86V86)
ACVRL1 = ACVRL1 (Homo sapiens, UniProt P37023)
DAPK1 = DAPK1 (Homo sapiens, UniProt P53355)
DYRK1B = DYRK1B (Homo sapiens, UniProt Q9Y463)
FGFR4 = FGFR4 (Homo sapiens, UniProt P22455)
FGFR1 = FGFR1 (Homo sapiens, UniProt P11362)
SBK1 = SBK1 (Homo sapiens, UniProt Q52WX2)
MET(M1250T) = MET(M1250T) (Homo sapiens, UniProt P08581, M1250T)
MST2 = molecular target: T4, MST2 (Homo sapiens, UniProt Q13188)
T4 construct: gene STK3

MLK3 = molecular target: T5, MLK3 (Homo sapiens, UniProt Q16584)
T5 construct: gene MAP3K11

PIK3CA = PIK3CA (Homo sapiens, UniProt P42336)
SLK = SLK (Homo sapiens, UniProt Q9H2G2)
MAP4K4 = MAP4K4 (Homo sapiens, UniProt O95819)
DYRK1A = DYRK1A (Homo sapiens, UniProt Q13627)

PRKG2, sequence (Q13237 whole entry): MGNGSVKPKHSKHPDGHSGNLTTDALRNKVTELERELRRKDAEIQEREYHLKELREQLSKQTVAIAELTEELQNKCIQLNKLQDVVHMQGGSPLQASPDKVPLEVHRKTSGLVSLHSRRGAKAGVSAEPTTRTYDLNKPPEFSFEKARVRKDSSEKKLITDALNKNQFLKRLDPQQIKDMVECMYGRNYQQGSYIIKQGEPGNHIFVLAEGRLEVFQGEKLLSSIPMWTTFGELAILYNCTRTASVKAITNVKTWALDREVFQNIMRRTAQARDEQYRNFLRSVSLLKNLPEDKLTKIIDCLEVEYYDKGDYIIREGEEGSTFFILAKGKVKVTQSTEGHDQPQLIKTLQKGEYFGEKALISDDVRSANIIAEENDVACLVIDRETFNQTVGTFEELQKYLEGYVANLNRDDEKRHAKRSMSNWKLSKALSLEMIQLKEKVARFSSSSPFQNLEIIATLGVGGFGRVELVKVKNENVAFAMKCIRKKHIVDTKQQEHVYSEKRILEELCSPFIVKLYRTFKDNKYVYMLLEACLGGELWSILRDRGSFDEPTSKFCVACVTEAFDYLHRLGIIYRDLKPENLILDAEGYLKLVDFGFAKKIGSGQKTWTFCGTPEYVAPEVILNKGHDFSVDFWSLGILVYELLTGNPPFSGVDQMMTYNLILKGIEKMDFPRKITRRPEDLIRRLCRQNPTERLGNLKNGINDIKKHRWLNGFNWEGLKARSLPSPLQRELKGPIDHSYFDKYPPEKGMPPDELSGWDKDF
NEK4, sequence (P51957 whole entry): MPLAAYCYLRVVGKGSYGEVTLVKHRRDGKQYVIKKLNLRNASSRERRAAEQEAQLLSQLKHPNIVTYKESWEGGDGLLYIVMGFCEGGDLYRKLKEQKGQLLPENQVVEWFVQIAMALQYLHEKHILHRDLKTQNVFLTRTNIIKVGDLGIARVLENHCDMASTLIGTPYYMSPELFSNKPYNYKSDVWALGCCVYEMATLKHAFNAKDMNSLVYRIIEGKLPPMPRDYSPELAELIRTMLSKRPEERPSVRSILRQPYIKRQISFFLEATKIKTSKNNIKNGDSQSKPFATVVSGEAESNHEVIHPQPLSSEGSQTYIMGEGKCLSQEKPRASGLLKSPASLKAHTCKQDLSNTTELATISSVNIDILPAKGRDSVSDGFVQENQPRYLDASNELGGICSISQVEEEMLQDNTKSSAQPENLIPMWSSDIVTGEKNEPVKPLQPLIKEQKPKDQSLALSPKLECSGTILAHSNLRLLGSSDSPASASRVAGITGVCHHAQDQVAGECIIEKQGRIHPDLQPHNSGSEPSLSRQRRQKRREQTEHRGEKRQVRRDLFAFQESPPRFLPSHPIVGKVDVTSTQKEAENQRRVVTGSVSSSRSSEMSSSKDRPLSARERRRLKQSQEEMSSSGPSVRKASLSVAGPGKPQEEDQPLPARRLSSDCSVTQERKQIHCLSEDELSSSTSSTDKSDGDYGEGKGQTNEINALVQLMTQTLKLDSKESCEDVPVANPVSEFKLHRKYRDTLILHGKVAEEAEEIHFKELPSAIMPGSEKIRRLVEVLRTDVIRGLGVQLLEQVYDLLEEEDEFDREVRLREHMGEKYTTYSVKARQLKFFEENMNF
DAPK1, sequence (P53355 whole entry): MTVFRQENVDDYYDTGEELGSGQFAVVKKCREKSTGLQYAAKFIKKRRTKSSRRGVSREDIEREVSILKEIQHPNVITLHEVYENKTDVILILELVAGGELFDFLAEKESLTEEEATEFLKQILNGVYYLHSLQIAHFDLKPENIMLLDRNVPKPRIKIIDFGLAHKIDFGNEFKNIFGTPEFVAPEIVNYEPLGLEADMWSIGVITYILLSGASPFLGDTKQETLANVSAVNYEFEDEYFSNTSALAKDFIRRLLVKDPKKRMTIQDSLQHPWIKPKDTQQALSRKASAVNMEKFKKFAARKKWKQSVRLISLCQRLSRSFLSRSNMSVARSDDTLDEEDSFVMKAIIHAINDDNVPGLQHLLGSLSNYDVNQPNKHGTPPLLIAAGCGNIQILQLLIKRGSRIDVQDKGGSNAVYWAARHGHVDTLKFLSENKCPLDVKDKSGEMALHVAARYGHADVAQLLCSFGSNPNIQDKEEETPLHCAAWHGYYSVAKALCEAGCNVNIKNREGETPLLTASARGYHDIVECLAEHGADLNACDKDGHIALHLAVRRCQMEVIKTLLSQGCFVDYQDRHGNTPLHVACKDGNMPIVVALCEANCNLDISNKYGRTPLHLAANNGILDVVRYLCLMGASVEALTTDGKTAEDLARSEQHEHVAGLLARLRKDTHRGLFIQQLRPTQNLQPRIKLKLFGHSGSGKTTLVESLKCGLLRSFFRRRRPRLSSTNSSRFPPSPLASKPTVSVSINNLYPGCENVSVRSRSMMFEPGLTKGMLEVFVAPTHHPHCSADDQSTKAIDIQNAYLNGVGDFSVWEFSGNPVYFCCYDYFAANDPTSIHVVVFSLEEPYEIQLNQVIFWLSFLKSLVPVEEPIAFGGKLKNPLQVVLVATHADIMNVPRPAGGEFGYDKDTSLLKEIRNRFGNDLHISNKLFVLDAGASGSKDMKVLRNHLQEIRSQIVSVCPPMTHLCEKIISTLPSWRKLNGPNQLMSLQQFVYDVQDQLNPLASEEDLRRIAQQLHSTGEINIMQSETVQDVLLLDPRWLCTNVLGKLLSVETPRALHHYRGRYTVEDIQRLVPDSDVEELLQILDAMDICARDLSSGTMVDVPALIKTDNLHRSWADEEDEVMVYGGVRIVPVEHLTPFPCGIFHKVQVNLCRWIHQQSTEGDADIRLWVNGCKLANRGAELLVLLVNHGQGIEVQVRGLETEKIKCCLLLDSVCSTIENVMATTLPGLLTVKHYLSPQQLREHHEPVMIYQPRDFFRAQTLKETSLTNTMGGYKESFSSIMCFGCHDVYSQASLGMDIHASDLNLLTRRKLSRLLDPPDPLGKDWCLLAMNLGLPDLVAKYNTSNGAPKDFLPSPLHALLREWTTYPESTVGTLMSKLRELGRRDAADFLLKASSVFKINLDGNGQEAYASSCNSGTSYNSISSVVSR
DYRK1B, sequence (Q9Y463 whole entry): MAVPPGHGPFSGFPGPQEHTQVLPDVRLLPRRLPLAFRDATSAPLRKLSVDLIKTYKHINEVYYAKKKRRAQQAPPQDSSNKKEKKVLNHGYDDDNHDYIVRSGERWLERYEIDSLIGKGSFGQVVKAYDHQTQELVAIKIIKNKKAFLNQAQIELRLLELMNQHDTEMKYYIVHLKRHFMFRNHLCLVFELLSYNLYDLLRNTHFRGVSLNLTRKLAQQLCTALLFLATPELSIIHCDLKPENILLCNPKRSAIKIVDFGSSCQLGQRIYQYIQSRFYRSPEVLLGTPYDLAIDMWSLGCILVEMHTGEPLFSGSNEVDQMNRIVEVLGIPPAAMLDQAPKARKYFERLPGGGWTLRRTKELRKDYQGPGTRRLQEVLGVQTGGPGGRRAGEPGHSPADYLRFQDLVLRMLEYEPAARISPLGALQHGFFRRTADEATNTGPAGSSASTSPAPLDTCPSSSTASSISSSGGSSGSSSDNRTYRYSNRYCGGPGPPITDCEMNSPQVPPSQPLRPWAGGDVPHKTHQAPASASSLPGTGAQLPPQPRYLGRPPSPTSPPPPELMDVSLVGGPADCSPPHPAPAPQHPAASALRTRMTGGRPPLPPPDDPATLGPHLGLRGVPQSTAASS
SRPK3, sequence (Q9UPE1 whole entry): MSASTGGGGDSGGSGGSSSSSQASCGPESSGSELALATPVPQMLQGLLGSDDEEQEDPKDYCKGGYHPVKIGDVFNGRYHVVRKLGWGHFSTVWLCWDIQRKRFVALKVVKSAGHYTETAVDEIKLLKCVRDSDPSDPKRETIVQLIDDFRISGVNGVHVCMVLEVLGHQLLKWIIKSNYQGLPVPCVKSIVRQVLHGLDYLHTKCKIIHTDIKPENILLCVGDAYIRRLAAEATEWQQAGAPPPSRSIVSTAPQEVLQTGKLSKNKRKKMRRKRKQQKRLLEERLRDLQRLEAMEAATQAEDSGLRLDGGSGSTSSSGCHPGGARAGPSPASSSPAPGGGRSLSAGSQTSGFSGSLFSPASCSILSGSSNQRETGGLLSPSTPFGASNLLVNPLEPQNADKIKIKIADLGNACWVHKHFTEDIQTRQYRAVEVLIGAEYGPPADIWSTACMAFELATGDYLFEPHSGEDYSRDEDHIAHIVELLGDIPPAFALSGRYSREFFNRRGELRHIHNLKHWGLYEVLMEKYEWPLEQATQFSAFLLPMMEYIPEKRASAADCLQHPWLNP
T4 sequence (Q13188 whole entry): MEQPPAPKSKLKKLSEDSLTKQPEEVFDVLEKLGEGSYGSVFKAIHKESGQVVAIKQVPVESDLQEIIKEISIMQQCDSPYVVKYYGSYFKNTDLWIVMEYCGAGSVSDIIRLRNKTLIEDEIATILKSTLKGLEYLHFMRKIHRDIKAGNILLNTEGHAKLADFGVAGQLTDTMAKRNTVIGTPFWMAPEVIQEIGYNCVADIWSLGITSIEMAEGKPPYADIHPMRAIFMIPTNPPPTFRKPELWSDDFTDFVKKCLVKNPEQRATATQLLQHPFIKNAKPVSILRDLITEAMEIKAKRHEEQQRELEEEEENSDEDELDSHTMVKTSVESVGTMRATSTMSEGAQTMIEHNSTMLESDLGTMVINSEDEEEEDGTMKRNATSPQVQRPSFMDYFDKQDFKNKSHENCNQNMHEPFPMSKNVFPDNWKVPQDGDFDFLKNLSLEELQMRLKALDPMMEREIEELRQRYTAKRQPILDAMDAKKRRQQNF

Row | SMILES | remaining binding at 10 µM (PKAC-alpha) [%] | remaining binding at 10 µM (NEK4) [%] | remaining binding at 10 µM (IRAK4) [%] | remaining binding at 10 µM (DRAK2) [%] | remaining binding at 10 µM (MAP4K3) [%] | remaining binding at 10 µM [1] [%] | remaining binding at 10 µM (SRPK3) [%] | remaining binding at 10 µM (STK39) [%] | remaining binding at 10 µM (PRKG2) [%] | remaining binding at 10 µM (PIM3) [%] | remaining binding at 10 µM (ACVRL1) [%] | remaining binding at 10 µM (DAPK1) [%] | remaining binding at 10 µM (DYRK1B) [%] | remaining binding at 10 µM (FGFR4) [%] | remaining binding at 10 µM (FGFR1) [%] | remaining binding at 10 µM (SBK1) [%] | remaining binding at 10 µM (MET(M1250T)) [%] | remaining binding at 10 µM (MST2) [%] | remaining binding at 10 µM (MLK3) [%] | remaining binding at 10 µM (PIK3CA) [%] | also measured
1 | COc1ccc(-c2cnccc2-c2cnc(NC(=O)C(C)C)s2)c(C(F)(F)F)c1 [CRT0105446, N-{5-[3-(4-Methoxy-2-trifluoromethyl-phenyl)-pyridin-4-yl]-hiazol-2-yl}-isobutyramide] | 100 | 91 | 100 | 100 | 58 | 100 | 93 | 100 | 100 | 95 | 100 | 100 | 40 | 90 | 98 | 100 | 93 | 100 | 100 | 100 | remaining binding at 10 µM (SLK): 100%; remaining binding at 10 µM (MAP4K4): 68%; remaining binding at 10 µM (DYRK1A): 76%
2 | Cc1ccc(-c2cnccc2-c2cnc(Nc3ccc(O)cc3)s2)c(Cl)c1 [CRT0105950, 4-{5-[3-(2-Chloro-4-methyl-phenyl)-pyridin-4-yl]-thiazol-2-ylamino}-phenol] | 41 | 77 | 80 | 100 | 18 | 14 | 62 | 100 | 73 | 72 | 100 | 82 | 5.6 | 29 | 5 | 79 | 19 | 0.7 | 43 | 100 | remaining binding at 10 µM (SLK): 95%; remaining binding at 10 µM (MAP4K4): 11%; remaining binding at 10 µM (DYRK1A): 30%
